In publication PMC4214736, “Identification of a Novel Drug Lead That Inhibits HCV Infection and Cell-to-Cell Transmission by Targeting the HCV E2 Glycoprotein” (PLoS ONE, 2014):

Assays:
[1] = target: T1, recombinant HCV E2 protein (Con1eE2, eE2) (Hepatitis C virus (isolate Con1), UniProt Q9WMX2); test: SPR single cycle kinetics (Biacore T100, CM5 chip); format: binding
T1 construct: E2 ectodomain residues 384-656 cut from the HCV genome polyprotein; C-terminal Protein A tag removed by PreScission protease; secreted from HEK293T cells (lentiviral)

his-tagged CD81-LEL = target: T2, his-tagged CD81-LEL (Homo sapiens, UniProt P60033); test: SPR single cycle kinetics (Biacore T100, CM5 chip); format: binding
T2 construct: His-tagged, commercial (Bioclone Inc.)
T2 sequence (P60033 113-201 limits assumed): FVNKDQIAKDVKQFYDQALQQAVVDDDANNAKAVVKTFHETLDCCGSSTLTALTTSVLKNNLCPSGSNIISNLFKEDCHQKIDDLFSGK

[2] = target: T3, HCV E2 protein binding to GST-tagged human CD81-LEL (Hepatitis C virus (isolate Con1), UniProt Q9WMX2); test: ELISA, inhibition of E2 binding to immobilised CD81-LEL
T3 construct: with CD81 antigen (Homo sapiens)

[3] = target: T1, recombinant HCV E2 protein (Con1eE2, eE2); test: SPR single concentration screen (Biacore T100, CM5 chip); format: binding; conditions: 200 µM ligand in PBS; E2 immobilised by amine coupling (about 10,000 RU)
Excerpt: SPR single concentration screen (Biacore T100, CM5 chip) on recombinant HCV E2 protein (Con1eE2, eE2)

[4] = target: HCV E2 protein Con1 eE2 (envelope protein 2 ectodomain, amino acids 384-656) (Hepatitis C virus, isolate Con1 (genotype 1)) (UniProt Q9WMX2); test: SPR; Biacore T100; HCV E2 (1 µM in 10 mM sodium acetate pH 5) immobilised on a CM5 chip by amine coupling, about 10,000 RU; his-CD81 (50 nM) in PBS injected as positive control
Chain of HCV E2 protein Con1 eE2 (envelope protein 2 ectodomain, amino acids 384-656) (Hepatitis C virus, isolate Con1 (genotype 1)) (Q9WMX2 384-656): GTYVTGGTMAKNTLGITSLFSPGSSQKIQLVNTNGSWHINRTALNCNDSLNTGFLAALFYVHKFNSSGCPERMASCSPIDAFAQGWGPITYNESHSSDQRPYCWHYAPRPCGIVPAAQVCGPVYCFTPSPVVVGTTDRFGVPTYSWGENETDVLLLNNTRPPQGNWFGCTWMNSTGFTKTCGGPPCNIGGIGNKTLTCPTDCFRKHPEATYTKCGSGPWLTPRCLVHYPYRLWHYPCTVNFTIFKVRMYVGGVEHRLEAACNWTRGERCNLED

T1 sequence (Q9WMX2 384-656): as above
T3 sequence (Q9WMX2 384-656, one chain of several): as the sequence (Q9WMX2 384-656) above

CSc1ccc2c(c1)C(N1CCN(C)CC1)Cc1ccccc1S2 (stereo not drawn) [compound 281816, 1-methyl-4-(3-methylsulfanyl-5,6-dihydrobenzo[b] [1]benzothiepin-5-yl)piperazine]
Kd [1]: 41 µM
Kd (his-tagged CD81-LEL): 57 µM
IC50 [2]: 0.2 to 0.5 µM

Cc1nc(/N=C(/N)N(C)C)[nH]c(=O)c1C [compound 113486, NSC# 113486]
Binding (RU) [3]: 104.7 RU

NSC# 144694 [compound 144694]
Binding (RU) [3]: 118.8 RU

His-CD81-LEL (large extracellular loop of CD81, his-tagged) (domain or fragment)
response units bound [4]: 106 RU

COc1ccc(C2=CC(c3ccc(OC)c(OC)c3)c3c(c4ccccc4oc3=O)O2)cc1OC (stereo not drawn) [compound 211490, NSC# 211490]
Binding (RU) [3]: 102.9 RU

CC1(C)N=C(N)N=C(N)N1c1ccc(OCCCOc2ccccc2)c(Cl)c1.CCS(=O)(=O)O [compound 133071, NSC# 133071]
Binding (RU) [3]: 276.3 RU

Nc1nc(N)nc(-c2ccccc2-c2nc(N)nc(N)n2)n1 [compound 4429, NSC# 4429]
Binding (RU) [3]: 155.3 RU
